Tests used:
[1] = target: T1, Bifunctional epoxide hydrolase 2 (Homo sapiens, UniProt P34913); assay: Inhibition of His-tagged human recombinant soluble epoxide hydrolase pre-incubated for 15 mins before Epoxy-fluor7 substrate addition and measured after 20 mins by fluorescence based assay
T1 sequence (P34913 whole entry): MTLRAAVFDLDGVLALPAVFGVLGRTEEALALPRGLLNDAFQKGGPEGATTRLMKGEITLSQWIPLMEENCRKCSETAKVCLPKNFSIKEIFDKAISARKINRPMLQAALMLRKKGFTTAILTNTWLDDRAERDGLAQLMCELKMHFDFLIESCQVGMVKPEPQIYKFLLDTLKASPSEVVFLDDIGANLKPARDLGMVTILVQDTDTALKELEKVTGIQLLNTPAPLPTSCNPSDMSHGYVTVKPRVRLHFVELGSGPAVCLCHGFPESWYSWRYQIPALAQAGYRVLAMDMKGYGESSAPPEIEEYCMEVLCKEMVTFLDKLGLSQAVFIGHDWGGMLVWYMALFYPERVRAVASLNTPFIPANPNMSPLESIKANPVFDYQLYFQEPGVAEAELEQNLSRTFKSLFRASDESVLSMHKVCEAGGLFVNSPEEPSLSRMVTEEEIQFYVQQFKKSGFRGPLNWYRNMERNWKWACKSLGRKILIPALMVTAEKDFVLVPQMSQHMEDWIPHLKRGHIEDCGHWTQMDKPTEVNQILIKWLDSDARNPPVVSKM

Estrogen receptor = target: T2, Estrogen receptor (Homo sapiens, UniProt P03372); assay: Inhibition of His-tagged human ERalpha pre-incubated for 15 mins before fluorescent ligand addition and measured after 1 hr by fluorescence polarization assay
T2 sequence (P03372 whole entry): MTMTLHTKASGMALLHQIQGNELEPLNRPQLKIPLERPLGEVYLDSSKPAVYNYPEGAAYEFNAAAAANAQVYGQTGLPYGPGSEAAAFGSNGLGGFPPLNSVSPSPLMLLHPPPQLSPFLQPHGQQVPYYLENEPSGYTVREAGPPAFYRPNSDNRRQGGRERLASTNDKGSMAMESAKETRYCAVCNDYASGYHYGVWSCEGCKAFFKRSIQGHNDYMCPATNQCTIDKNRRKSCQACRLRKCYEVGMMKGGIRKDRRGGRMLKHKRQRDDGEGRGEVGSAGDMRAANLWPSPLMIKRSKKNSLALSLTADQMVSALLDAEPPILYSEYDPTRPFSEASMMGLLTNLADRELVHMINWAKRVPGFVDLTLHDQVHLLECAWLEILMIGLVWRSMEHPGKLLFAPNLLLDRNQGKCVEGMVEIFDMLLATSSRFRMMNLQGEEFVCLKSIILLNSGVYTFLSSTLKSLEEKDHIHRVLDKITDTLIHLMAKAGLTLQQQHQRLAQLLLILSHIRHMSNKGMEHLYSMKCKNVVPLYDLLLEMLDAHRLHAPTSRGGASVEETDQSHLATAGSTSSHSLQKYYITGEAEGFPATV

[2] = target: Mast/stem cell growth factor receptor Kit (Homo sapiens, UniProt P10721); assay: Inhibition of recombinant c-Kit (unknown origin) incubated for 1 hr by ADP-Glo assay
Mast/stem cell growth factor receptor Kit, sequence (P10721 whole entry): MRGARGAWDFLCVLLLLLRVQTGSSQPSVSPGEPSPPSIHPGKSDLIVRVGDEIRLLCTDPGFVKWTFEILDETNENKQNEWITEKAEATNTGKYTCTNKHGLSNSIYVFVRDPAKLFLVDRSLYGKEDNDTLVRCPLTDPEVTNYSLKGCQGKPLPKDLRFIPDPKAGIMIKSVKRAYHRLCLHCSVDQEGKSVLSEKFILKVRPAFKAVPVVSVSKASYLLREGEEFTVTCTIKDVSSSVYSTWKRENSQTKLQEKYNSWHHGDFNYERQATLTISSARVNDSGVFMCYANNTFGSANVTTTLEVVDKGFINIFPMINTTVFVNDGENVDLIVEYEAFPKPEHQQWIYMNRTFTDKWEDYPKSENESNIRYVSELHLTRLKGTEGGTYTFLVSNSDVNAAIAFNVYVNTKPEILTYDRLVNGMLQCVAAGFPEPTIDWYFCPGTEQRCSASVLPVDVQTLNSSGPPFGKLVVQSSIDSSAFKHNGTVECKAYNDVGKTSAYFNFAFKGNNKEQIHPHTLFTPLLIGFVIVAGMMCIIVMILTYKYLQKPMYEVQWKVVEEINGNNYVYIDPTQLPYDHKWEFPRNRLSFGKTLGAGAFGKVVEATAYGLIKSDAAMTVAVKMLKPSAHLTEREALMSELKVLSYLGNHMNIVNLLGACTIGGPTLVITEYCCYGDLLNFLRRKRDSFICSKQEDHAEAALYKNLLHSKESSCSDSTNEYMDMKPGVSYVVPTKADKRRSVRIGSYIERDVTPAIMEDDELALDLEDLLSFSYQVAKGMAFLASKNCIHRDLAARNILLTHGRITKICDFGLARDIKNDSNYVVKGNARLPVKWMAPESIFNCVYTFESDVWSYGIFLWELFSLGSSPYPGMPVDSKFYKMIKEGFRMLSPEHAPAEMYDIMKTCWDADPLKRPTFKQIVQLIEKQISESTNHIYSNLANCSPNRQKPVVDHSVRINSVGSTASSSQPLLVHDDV

| Structure (SMILES) | IC50 [1] [nM] | IC50 (Estrogen receptor) [nM] | IC50 [2] [nM] |
| --- | --- | --- | --- |
| CN1c2ccccc2C2(C)CCCC3Cc4cc(Br)cc(Br)c4OC312 (stereo unspecified) | – | 20 | – |
| CC(OC(=O)c1ccc2nc(N)sc2c1)C(=O)Nc1ccc(C(C)(C)C)cc1 (stereo unspecified) | – | – | 9 |
| CC(C)COC(=O)N1CCN(C(=O)C=CC(=O)Nc2ccc(Cl)cc2)CC1 | – | – | 21 |

More lines, now with the values ahead:

| IC50 [1] [nM] | IC50 (Estrogen receptor) [nM] | IC50 [2] [nM] | Structure (SMILES) |
| --- | --- | --- | --- |
| 1 | – | – | O=C(Nc1ccc(Sc2ccccc2Cl)cc1)C1CCN(C(=O)c2ccc(F)cc2)CC1 |
| – | 8 | – | Cc1ccccc1C(OC(c1ccccc1C)c1ccccc1C)c1ccccc1C |
| 2 | – | – | O=C(NC1CCC2CCCC2C1)C1CCCN(S(=O)(=O)c2cccs2)C1 (stereo unspecified) |
